Data taken from patent publication US20200009253A1, “Compositions and Methods for Treatment of Infections” (Thompson Cooper Laboratories, LLC, priority 2011, published 2020).

How the values were obtained:
[1] = Solubility of carbamide peroxide in alcohols; type: physicochemical; settings: solid carbamide peroxide
Protocol: On a weight basis, 18.5% carbamide peroxide, 3.0% glycerol, 73.1% ethyl alcohol, 4.5% luviskol VA 64-polyvinylpyrrolidone vinyl alcohol, and 0.9% Klucel HF, were mixed in a vessel and allowed to thicken. The source of peroxide was solid carbamide peroxide, which is only soluble in isopropyl alcohol to about 10% and in ethanol to about 20%, therefore luviskol VA 64-polyvinylpyrrolidone vinyl alcohol is added to supersaturate the carbamide peroxide, and glycerol is added to retain the carbamide peroxide in solution following ethanol evaporation.

[2] = Whitening effect of the nail after brushing the composition onto the nail surface (shows peroxide penetration); type: in vivo, human
Excerpt: (§1) Lower levels of hydrogen peroxide in the present invention can be used to treat infected skin or mucous membranes such as canker sores. Depending on the concentration of peroxide, penetration through a nail will also elicit sensations in certain subjects ranging from tingling to burning, which may be mildly painful at higher concentrations. Embodiments of the invention comprising an optional local anesthetic may be appropriate when using such higher concentrations. Effectiveness may be measured by a reduction of, or complete eradication of, the nail fungus over the course of treatment, and further evidenced by healthy nail growth. On a weight basis, 9% hydrogen peroxide, 21% water, 69.5% isopropyl alcohol, and 0.5% Klucel HF (a thickening agent, a hydroxypropylcellulose polymer), were mixed in a vessel and allowed to thicken. (The source of the peroxide was a 30% peroxide solution.) The composition could easily be brushed onto a nail surface, which dried in approximately 1 minute, and the residual polymer could subsequently be removed by washing in water. […] On a weight basis, 6% hydrogen peroxide, 6% water, 87.5% isopropyl alcohol, and 0.5% Klucel HF, were mixed in a vessel and allowed to thicken. […] The resulting composition differed from that of Example 2a in that there was no isopropyl alcohol or any other highly volatile solvent, the quantity thereof being replaced with water. […]

[3] = Sensation (tingling, burning, pain) under the nail after application; type: in vivo, human; settings: 3% in a solvent system containing a highly volatile solvent; after 15-30 minutes
Excerpt: as §1

Row | solubility in ethanol [1] | solubility in isopropyl alcohol [1] | SMILES | visual effect on normal finger nail ([2]; 3% aqueous concentration, thin film via a brush) | visual effect on nail ([2]; same amount and 3% concentration in a solvent system containing a highly volatile solvent) | sensation after application [3]
1 | about 20% | about 10% | NC(N)=O.OO [carbamide peroxide] | – | – | –
2 | – | – | OO [hydrogen peroxide, Hydrogen peroxide] | no visual effect | signs of whiteness | a slight tingling sensation may sometimes be felt
